Measured values published in patent US20260285849A1, “METHYLOPHIOPOGONONE A DERIVATIVE, AND PREPARATION AND USE THEREOF” (INSTITUTE OF MATERIA MEDICA, CHINESE ACADEMY OF MEDICAL …, priority 2022, published 2026).
Where two headings read alike, the source gives them in different places. Marks after values point to notes of the source that are not given here.

Key:
[1] = test system: mice with isoproterenol (ISO)-induced ischemic heart disease; assay: ISO-induced ischemic heart disease mouse model: Ca2+ in myocardial tissue; format: in vivo
Method: Male C57BL/6 mice were allowed to acclimate to the environment and then randomly divided into 9 groups, namely the blank control group, the ISO model group, the ISO+diltiazem 20 mg/kg positive control drug group, the ISO+Formula I (0.1, 0.5, 2 mg/kg) groups, and the ISO+Formula II (0.1, 0.5, 2 mg/kg) groups. Mice in the drug administration groups were intragastrically administered the corresponding doses of Formula I and Formula II compounds once a day at the same time. Mice in the positive drug diltiazem group were intragastrically administered the corresponding dose of diltiazem once a day. Mice in the blank control group and the model group were given the same amount of solvent (0.5% CMC-Na). The administration volume was 10 mL/kg, and the administration was continuous for 11 days.
From the 4th to the 10th day of drug administration, ISO modeling was carried out. The blank control group was subcutaneously injected with normal saline, and mice in the other groups were subcutaneously injected with ISO at a dose of 40 mg/kg (modeling was performed 2 hours after drug administration), for a total of 7 times.
Calcium ion detection in myocardial tissue: After the experiment ended, some myocardial tissue was taken to prepare a 10% myocardial tissue homogenate with ultrapure water. The homogenate was centrifuged at 1200 rpm for 20 minutes at 4° C. to separate the supernatant of the myocardial tissue homogenate. The calcium ion content was determined according to the kit instructions; protein quantification was performed using the BCA protein assay method.

[2] = test system: Rat H9C2 cardiomyocytes; details: 800 μM ISO 24 h, MTT 570 nm
Method: Rat H9C2 cardiomyocytes in the logarithmic growth phase were seeded into 96-well plates at a density of 7×10^4 cells/mL, with 100 μL per well. […] After 24 hours of culture, the drug groups were treated with 800 μM ISO and the corresponding concentrations of drugs. The ISO model group received 800 μM ISO and an equal volume of DMSO, and the blank control group received an equal volume of DMSO. The cells were then cultured for another 24 hours. After removing the supernatant, 100 μL MTT solution (0.5 mg/mL) was added to each well and incubated in the cell culture incubator for 4 hours. After removing the supernatant, 150 μL DMSO was added to each well, mixed by shaking for 10 minutes, and the absorbance was measured at 570 nm using a microplate reader to calculate cell viability. Cell viability (%)=[(As−Ab)/(Ac−Ab)]×100%. As: Experimental well (medium with cells, MTT, ISO); Ac: Control well (medium with cells, MTT, without ISO); Ab: Blank well (medium without cells, MTT, without ISO).

[3] = test system: H9C2 cardiomyocytes; details: 6 h hypoxia, 12 h reoxygenation, CCK 450 nm
Method: H9C2 cardiomyocytes in the logarithmic growth phase were seeded into 96-well plates at a density of 7×10^4 cells/mL, with 100 μL per well.
After 24 hours of culture, the culture medium of the H/R and drug-treated groups was replaced with serum-free glucose-free DMEM medium (100 μL per well). The cells were then placed in an anaerobic incubator and cultured under hypoxic conditions in a 37° C. cell culture incubator. After 6 hours, the supernatant of the H/R and drug-treated groups was removed and replaced with high-glucose medium containing 10% fetal bovine serum (100 μL per well). Each drug-treated group received the corresponding concentration of the drug, while the H/R model group and the blank control group received an equal volume of DMSO.
After removing the supernatant, 100 μL of CCK solution (the volume of CCK accounted for 10% of the DMEM culture medium volume) was added to each well. The cells were cultured in the cell culture incubator for 1 hour, and the absorbance was measured at 450 nm using a microplate reader to calculate the cell viability. Cell viability was calculated as follows: Cell viability (%)=(Experimental well-Blank well)/(Control well-Blank well)×100%.

[4] = 0.1 mg/kg intragastric once a day 11 days
[5] = 0.5 mg/kg intragastric once a day 11 days
[6] = 2 mg/kg intragastric once a day 11 days

SMILES	Ca^2+ [1, 4] [mmol/gprot]	Ca^2+ [1, 5] [mmol/gprot]	Ca^2+ [1, 6] [mmol/gprot]	OD ([2]; 0.1 μM)	OD ([2]; 0.3 μM)	OD ([2]; 1 μM)	OD ([2]; 3 μM)	OD ([2]; 5 μM)	OD ([2]; 10 μM)	OD ([3]; 0.1 μM)	OD ([3]; 0.3 μM)	OD ([3]; 1 μM)	OD ([3]; 3 μM)	OD ([3]; 5 μM)	OD ([3]; 10 μM)
O=c1c(Cc2ccc3c(c2)OCO3)coc2cc(O)cc(O)c12 [Formula I]	0.050 ± 0.008	0.046 ± 0.010	0.058 ± 0.009	0.983 ± 0.144	0.929 ± 0.105	0.969 ± 0.065^###&&	0.926 ± 0.045	0.807 ± 0.088	0.839 ± 0.091^###&	0.630 ± 0082	0.628 ± 0.061	0.576 ± 0.063	0.620 ± 0.069	0.566 ± 0.074^(p = 0.07)	0.575 ± 0.091
Cc1c(O)cc(O)c2c(=O)c(Cc3ccc4c(c3)OCO4)coc12 [Formula II, 3-(benzo[d][1,3]dioxol-5-ylmethyl)-5,7-dihydroxy-8-methyl-4H-chromen-4-one]	0.046 ± 0.015	0.054 ± 0.014	0.059 ± 0.009	0.964 ± 0.132	0.964 ± 0.031	0.904 ± 0.072^###&&	0.963 ± 0.064	0.784 ± 0.067	0.806 ± 0.067	0.630 ± 0.070	0.612 ± 0.059	0.542 ± 0.075	0.640 ± 0.070	0.466 ± 0.023	0.498 ± 0.071
